Measured values as given in ChEMBL document CHEMBL4177744, “Discovery of novel scaffolds for γ-secretase modulators without an arylimidazole moiety” (Bioorg Med Chem, 2018).

Experiments:
[1] = molecular target: T1, CYP3A4 (Homo sapiens, UniProt P08684); experiment: Inhibition of CYP3A4 in human liver microsomes assessed as residual activity at 5 uM using midazolam as substrate after 20 mins in presence of NADPH by LC-MS/MS analysis relative to control; type: ADME; conditions: probe midazolam, read-out: Activity
[2] = molecular target: T1, CYP3A4; experiment: Inhibition of CYP3A4 in human liver microsomes assessed as residual activity at 5 uM using midazolam as substrate preincubated for 30 mins followed by substrate addition measured after 20 mins in presence of NADPH by LC-MS/MS analysis relative to control; type: ADME; conditions: probe midazolam, read-out: Activity
[3] = Intrinsic clearance in CD-1 mouse liver microsomes assessed per mg protein at 0.2 uM by LC-MS/MS analysis; type: ADME, microsome; conditions: read-out: CLH
[4] = molecular target: Gamma-secretase; experiment: Modulatory activity against gamma-secretase in human SK-N-BE(2) cells assessed as reduction in amyloid beta 42 production after 6 hrs by sandwich ELISA; type: cell-based
[5] = Drug uptake in ddY mouse plasma at 30 mg/kg, ip after 3 hrs by LC-MS/MS analysis; type: ADME, organism-based
[6] = Brain to plasma partition coefficient, Kp in ddY mouse at 30 mg/kg, ip after 1 hr by LC-MS/MS analysis; type: ADME, organism-based
[7] = Drug uptake in ddY mouse brain at 30 mg/kg, ip after 1 hr by LC-MS/MS analysis; type: ADME, organism-based; conditions: in vivo
[8] = Drug uptake in ddY mouse plasma at 30 mg/kg, ip after 1 hr by LC-MS/MS analysis; type: ADME, organism-based
[9] = […], Kp in ddY mouse brain at 30 mg/kg, ip after 3 hrs by LC-MS/MS analysis; type: ADME, organism-based; conditions: BLD = below limit of detection
[10] = Drug uptake in ddY mouse plasma at 30 mg/kg, po after 3 hrs by LC-MS/MS analysis; type: ADME, organism-based
[11] = Drug uptake in ddY mouse brain at 30 mg/kg, po after 1 hr by LC-MS/MS analysis; type: ADME, organism-based; conditions: in vivo
[12] = Drug uptake in ddY mouse brain at 30 mg/kg, po after 3 hrs by LC-MS/MS analysis; type: ADME, organism-based; conditions: in vivo
[13] = Brain to plasma partition coefficient, Kp in ddY mouse at 30 mg/kg, po after 1 hr by LC-MS/MS analysis; type: ADME, organism-based
[14] = Drug uptake in ddY mouse plasma at 30 mg/kg, po after 1 hr by LC-MS/MS analysis; type: ADME, organism-based
[15] = Brain to plasma partition coefficient, Kp in ddY mouse at 30 mg/kg, po after 3 hrs by LC-MS/MS analysis; type: ADME, organism-based

T1 sequence (P08684 whole entry): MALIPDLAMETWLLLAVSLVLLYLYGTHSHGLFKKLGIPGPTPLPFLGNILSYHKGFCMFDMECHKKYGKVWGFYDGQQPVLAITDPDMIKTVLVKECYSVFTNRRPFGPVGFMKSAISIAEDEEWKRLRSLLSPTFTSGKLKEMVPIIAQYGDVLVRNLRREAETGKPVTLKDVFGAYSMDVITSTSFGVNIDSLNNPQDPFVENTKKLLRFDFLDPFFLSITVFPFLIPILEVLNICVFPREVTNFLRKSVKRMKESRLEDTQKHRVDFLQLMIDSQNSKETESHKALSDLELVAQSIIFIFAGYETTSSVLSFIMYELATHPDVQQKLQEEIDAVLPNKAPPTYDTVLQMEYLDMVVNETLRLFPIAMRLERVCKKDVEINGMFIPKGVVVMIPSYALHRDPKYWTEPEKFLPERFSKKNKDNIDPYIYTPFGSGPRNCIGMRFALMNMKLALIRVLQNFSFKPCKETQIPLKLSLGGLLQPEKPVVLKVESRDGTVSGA

Row | Compound | microsomal CLint at 0.2 µM [3] [µL/min/mg] | IC50 [4] [µM] | also measured
1 | COc1cc(/C=C2\CCCN([C@@H](C)c3ccc(F)cc3)C2=O)ccc1-n1cnc(C)c1 | – | – | activity at 20 min, 5 µM [1]: 40%; activity at 20 min, 5 µM [2]: 29%
2 | CCCCN1CCC(c2c(C)nc3c(OCc4ccccc4C)cccn23)CC1 | > 1000 | 8.7 | –
3 | Cc1ccccc1COc1cccn2c(C3CCN(C)CC3)c(C)nc12 | – | 9.8 | –
4 | Cc1nc2c(OCc3ccccc3)cccn2c1CN(C)CCN(C)C | – | > 50 | –
5 | CCNC(=O)c1ccc(-c2c(C)nc3c(OCc4ccccc4C)cccn23)cc1 | – | 2.3 | –
6 | Cc1nc2c(OCc3ccccc3)cccn2c1C1CCN(C2CCCCC2)CC1 | – | 5.8 | –
7 | CCCC(=O)N1CCC(c2c(C)nc3c(OCc4ccccc4C)cccn23)CC1.Cl | > 1000 | 0.69 | concentration at 3 h [5]: 0.0094 µM; Kp at 1 h [6]: 1; Drug uptake [7]: 0.71 nmol/g; concentration at 1 h [8]: 0.7 µM; Kp [9]: Bld
8 | CCCCc1ccc(-c2c(C)nc3c(OCc4ccccc4C)cccn23)cc1 | 628 | > 50 | –
9 | CCOC(=O)c1ccc(-c2c(C)nc3c(OCc4ccccc4C)cccn23)cc1 | – | 1.8 | –
10 | CCOC(=O)N1CCC(c2c(C)nc3c(OCc4ccccc4C)cccn23)CC1 | – | 1.3 | –
11 | Cc1ccccc1COc1cccn2c(-c3ccncc3)c(C)nc12 | – | 7.1 | –
12 | CCN1Cc2cc(-c3c(C)nc4c(OCc5ccccc5C)cccn34)ccc2C1=O.Cl | 611 | 0.39 | activity at 20 min, 5 µM [1]: 85%; concentration at 3 h [10]: 0.96 µM; Drug uptake [11]: 1.9 nmol/g; Drug uptake [12]: 0.69 nmol/g; Kp at 1 h [13]: 0.72; concentration at 1 h [14]: 2.5 µM; activity at 20 min, 5 µM [2]: 87%; Kp at 3 h [15]: 0.72
13 | CCN(C)C(=O)c1ccc(-c2c(C)nc3c(OCc4ccccc4C)cccn23)cc1 | – | > 10 | –
